Measurements from ChEMBL document CHEMBL4831480, “Identification of First-in-Class Inhibitors of Kallikrein-Related Peptidase 6 That Promote Oligodendrocyte Differentiation” (J Med Chem, 2021).
The source made the active and inactive calls. The calls are words filed in the database; no cut-off is given here.

Key:
Cortical neurone = test: Cytotoxicity against Swiss mouse cortical cells assessed as cell viability at 10 uM incubated for 24 hrs by XTT assay; assay type: cell-based
[1] = Cytotoxicity against Sprague-Dawley rat CG-4 cells assessed as cell death at 30 uM measured after 4 days by fluorescence imaging analysis; assay type: cell-based; details: cg-4, 96 h, time 4 day
CG-4 = test: Induction of oligodendrocyte differentiation in Sprague-Dawley rat CG-4 cells assessed as matured oligodendrocyte by measuring increase in mCherry positive cells at 6 to 8 uM measured after 4 days by fluorescence imaging analysis; assay type: functional, cell-based; details: dose 6-8 µM, time 4.0 day

With `Cl.NCc1ccc(NC(=O)c2ccc3ccccc3c2O)cc1` the Activity (Cortical neurone) was “Toxic”.
With `CC(C)(C)c1ccc(O)c(C(=O)Nc2ccc(CN)cc2)c1.Cl` the Activity [1] was “Toxic”.
For `Cc1ccc(C(=O)Nc2ccc(CN)cc2)c(O)c1.Cl`, the Activity (CG-4) was “Active”.
